Data: US20190099394A1, “METHODS OF IMPROVING MOTOR FUNCTION USING KETONE SUPPLEMENTATION” (priority 2016, published 2019)

How the values were obtained:
[1] = tested on: glucose transporter type 1 (G1D)-deficient mice; assay: rotarod test, G1D mice; assay type: in vivo; details: for motor performance on the rotarod test: 6 weeks of feeding
Excerpt: (§1) A group of 48 G1D mice, aged 2-5 months old, were fed for 10 weeks with either a standard rodent diet (SD), a ketogenic diet (KD), a standard diet supplemented with 10% ketone ester (SD+KE) or a standard diet supplemented with 20% ketone mineral salt (SD+KS).

[2] = tested on: Sprague-Dawley rats; assay: accelerating rotarod test, four month old Sprague-Dawley rats; assay type: in vivo, rat; details: for motor function (accelerating rotarod) compared to the control group: 5 g/kg once daily oral gavage or diet, at both 24 hours and 7 days after dietary treatment, FIG. 1; for time able to remain on the rotarod relative to controls fed a standard diet only: 24 hours and 7 days, FIG. 2
Excerpt: Four month old Sprague-Dawley rats were first acclimated to oral gavage with administration of tap water once daily for a period of 5 days. The rats were then divided into 5 groups, and fed either a standard diet (SD), a ketogenic diet (KD), or a standard diet supplemented with a once daily oral gavage of a ketone supplement (Table 1). The ketone supplement was selected from the ketone ester 1,3-butanediol-acetoacetate diester (SD+KE), the ketone salt β-hydroxybutyrate mineral salt (SD+KS), or β-hydroxybutyrate mineral salt and a medium chain triglyceride (SD+KSMCT). Ketone supplements were provided at a dose of 5 g/kg of body weight. Each group of animals was maintained on the respective diets for 7 days. The animals were evaluated for motor performance prior to the beginning of dietary treatment, 24 hours after treatment, and after 7 days of dietary treatment.
Motor performance was evaluated using the accelerating rotarod test on a Rota Rod
Rotamex 5 (Columbus Instruments). The rats were placed on the rod of the accelerating rotarod and the time the animals remained on the rod was measured; the rotarod was set to accelerate to 40 rpm over 180 seconds. Prior to the administration of a test, animals were trained on the rotarod for 5 consecutive days. Each day of training consisted of 3 trials, with a 2 minute rest period between each trial. Animals were placed on the rotarod and timed until they fell from the rotating rod.
The ketone ester, 1,3-butanediol-acetoacetate diester, was synthesized as previously described (Agostino et al., Am J Physiol; 304(10): R829-R836 (2013)). The ketone salt, β-hydroxybutyrate mineral salt (Na^+/K^+-βHB mineral salt) was mixed into a 50% solution by adding approximately 375 mg/g of pure βHB with 125 mg/g of Na^+/K^+. Accordingly, each dose of the mineral salt was equal to about 1000-1500 mg of βHB, depending on the weight of the animal. Both the ketone ester and the ketone salt were developed and synthesized in collaboration with SavInd, Inc. Pharmaceutical grade medium chain triglyceride (MCT) oil (about 65% caprylic triglyceride) was purchased from Now Foods (Bloomingdale, Ill., USA). MCT was mixed in a 1:1 ratio with β-hydroxybutyrate mineral salt to obtain a ketone salt with MCT, and in a 1:1 ratio with 1,3-butanediol-acetoacetate diester to obtain […] with MCT.

[3] = tested on: WAG/Rij rats; assay: accelerated rotarod test, WAG/Rij rats; assay type: in vivo, rat; details: 2.5 g/kg total oral gavage daily for 7 days, about 45 minutes after treatment, FIG. 6 and FIG. 7
Description: WAG/Rij rats were first acclimated to oral gavage with administration of tap water once daily for a period of 3 days. About 45 minutes after the water gavage on the third day, the animals performed the accelerated rotarod test to establish a baseline. After three trials on the rotarod, blood samples were taken to measure baseline glucose and ketone body levels (blood samples were collected about 60 minutes after the gavage).
One day later, the rats were divided into 6 groups, and given an oral gavage supplement selected from water, the ketone ester 1,3-butanediol-acetoacetate diester (KE), the ketone ester with medium chain triglyceride (KEMCT), the ketone salt β-hydroxybutyrate mineral salt (KS), the ketone salt with medium chain triglyceride (KSMCT), or a combination of the ketone ester and the ketone salt (KEKS) (Table 3). Supplements containing the ketone ester or the ketone salt alone were provided at a dose of 2.5 g/kg of body weight. For supplements containing two components (e.g., a ketone ester with MCT, a ketone salt with MCT, a ketone ester with a ketone salt), each component was provided at a dose of 1.25 g/kg of body weight (for a total dosage of 2.5 g/kg). The animals were treated every day for 7 days.
About 45 minutes after the 7th treatment, the rats were evaluated on the accelerated rotarod test. […]

[4] = tested on: glucose transporter type 1 (G1D)-deficient mice; assay: hanging wire test, G1D mice; assay type: in vivo; details: fed for 10 weeks, FIG. 9
Excerpt: as §1

Compound | motor performance on the rotarod test [1] | performance on the rotarod test vs baseline levels ([1]; by 4 weeks of feeding, FIG. 8) | motor function (accelerating rotarod) compared to the control group [2] | time able to remain on the rotarod relative to controls fed a standard diet only [2] | motor function (accelerated rotarod) [3] | motor function on the rotarod test ([1]; 10 weeks of feeding) | course of improvement on the hanging wire test [4] | strength endurance (hanging wire test) [4]
CC(=O)CC(=O)OCCC(C)OC(=O)CC(C)=O (stereo not drawn) [ketone ester, 1,3-butanediol-acetoacetate diester] | increase in motor performance | significant increase in performance on the rotarod test | improvement in motor function | able to remain on the rotarod for longer periods of time | not sufficient to improve motor function |  |  | 
β-hydroxybutyrate mineral salt [ketone salt] | increase in motor function |  | improvement in motor function | able to remain on the rotarod for longer periods of time | not sufficient to improve motor function | increase in motor function | rapid improvement beginning at week 1 | improved
